Data on 3 molecules can be found in ChEMBL document CHEMBL2390845, “Identification of PDZ ligands by docking-based virtual screening for the development of novel analgesic agents” (Bioorg Med Chem Lett, 2013).

Calls of active or inactive are those of the source.

Test [1] has as its target Disks large homolog 4 (Homo sapiens) (UniProt P78352). The experiment in a line: Binding affinity to PSD-95 PDZ1 domain (unknown origin) expressed in Escherichia coli BL21 at 1 mM by 1H-15N HSQC NMR analysis.
The target is the same in test [2]. The experiment in a line: Binding affinity to PSD-95 PDZ2 domain (unknown origin) expressed in Escherichia coli BL21 at 1 mM by 1H-15N HSQC NMR analysis.
Test [3] concerns Rattus norvegicus. Briefly: Antihyperalgesic activity in intrathecally dosed chronic constriction nerve injury-induced rat neuropathic pain model assessed as vocalisation threshold to paw-pressure measured up to 120 mins post-compound treatment. The class given is functional, organism-based.
The subject of test [4] is Rattus norvegicus. Briefly: Antihyperalgesic activity in chronic constriction nerve injury-induced rat neuropathic pain model assessed as reduction in mechanical hyperalgesia measuring vocalisation threshold to paw-pressure at 122.6 ng administered intrathecally measured 15 mins post-compound treatment. It counts as functional, organism-based.

Chain of Disks large homolog 4 (Homo sapiens) (P78352 whole entry, looked up, the tested form may be a part): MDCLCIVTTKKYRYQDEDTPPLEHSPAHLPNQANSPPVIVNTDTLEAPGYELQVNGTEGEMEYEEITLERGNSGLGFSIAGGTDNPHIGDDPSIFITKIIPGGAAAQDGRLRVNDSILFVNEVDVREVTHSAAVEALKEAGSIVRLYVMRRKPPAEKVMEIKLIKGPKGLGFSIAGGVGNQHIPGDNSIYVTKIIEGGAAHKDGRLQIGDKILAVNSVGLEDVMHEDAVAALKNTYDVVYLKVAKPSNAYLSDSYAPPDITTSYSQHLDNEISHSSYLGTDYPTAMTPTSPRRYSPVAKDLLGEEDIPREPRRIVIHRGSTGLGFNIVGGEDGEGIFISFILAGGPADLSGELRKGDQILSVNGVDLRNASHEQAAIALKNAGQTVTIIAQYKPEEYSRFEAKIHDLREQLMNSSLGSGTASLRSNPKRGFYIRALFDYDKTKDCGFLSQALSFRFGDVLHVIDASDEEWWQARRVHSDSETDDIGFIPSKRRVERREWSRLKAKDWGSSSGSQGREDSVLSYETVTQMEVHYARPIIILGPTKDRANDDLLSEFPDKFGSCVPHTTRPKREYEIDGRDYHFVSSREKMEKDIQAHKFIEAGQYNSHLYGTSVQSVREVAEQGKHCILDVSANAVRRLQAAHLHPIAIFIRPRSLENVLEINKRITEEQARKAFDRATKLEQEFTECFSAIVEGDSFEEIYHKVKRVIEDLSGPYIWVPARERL

As to `Cc1cc2cc(C)c(C(=O)O)nc2cc1C(=O)O`, the outcome (in test [1]; in test [2]; in the test with Rattus norvegicus [4]) was Active. Besides, the Activity result in the test with Rattus norvegicus [3] is “Dose-dependent effect”.

For `O=C(N/N=C/c1cccc(O)c1O)c1ccc(O)cc1`, the outcome in test [1] and in test [2] was inactive.

With `O=C(O)c1ccc(N[C@@H]2O[C@H](CO)[C@@H](O)[C@H](O)[C@H]2O)cc1`, the outcome in test [1] and in test [2] was inactive.
